Peptide text beside a SMILES is read from it.
Experiments:
human erythrocytes = test: Hemolysis assay; format: cell-based; conditions: red cells of human, 1 h
Description: Human erythrocytes were freshly ordered at the Blutspende Zürich. Erythrocytes were washed 3 times with a […] phosphate buffered saline (PBS, Gibco, Thermo Fisher Scientific, Waltham, MA, USA) solution centrifuging at 800 g for 10 min or until the supernatant appeared clear to remove the blood plasma. A 5% v/v erythrocytes : PBS solution was prepared for direct use. For HC50 determination, peptides were dissolved in PBS at an intermediate concentration of 1 mM. A dilution series of the peptide from 200 to 6.25 μM was plated in a round-bottomed 96-well plate in triplicates, with a volume of 50 μL per well. PBS buffer and a solution of 0.1% Triton-X-100 (Fisher Chemical, Loughborough, UK) in PBS were employed as negative and positive controls, respectively. 50 μL of the 5% erythrocyte solution were added in each well and the plates were incubated at 37°C for 1 h. After this time, 100 μL PBS were added to each well and plates were centrifuged at 800 g for 10 min. 100 μL of the supernatant were transferred to a flat-bottomed 96-well plate and the absorbance was measured at 540 nm in a Tecan Infinity M1000 spectrophotometer plate reader. The hemolysis percentage was calculated, considering the absorbance values of the Triton and PBS wells as 100% and 0% hemolysis, respectively.
The resultant sigmoidal curves were analyzed with the drc22 R package using a log-logistic model with 3 fixed parameters to obtain the HC50 values. […]
NCI-60 screening procedure […]
Each peptide was tested in a 5-concentration assay, starting at 10^-4 M and diluting 10-fold to the lowest 10^-8 M concentration. The peptides were incubated for 48 h and the cell concentration was assayed by using the sulforhodamine B assay25 and optical density measurements. The growth inhibition (GI50) value24, measures the growth inhibitory power of the drug agent. The GI50 value is the concentration of the test drug for which the condition in Eq. S1 is met, where T is the optical density of the test well after a 48-h exposure to the peptide, T0 the optical density before applying the peptide drug and C the control optical density of a well where no peptide was applied.

[1] = test system: MCF7 breast adenocarcinoma cell line; test: Cell viability assay (MTT); format: cell-based, human; conditions: Table S2, 24 h, mean ± sd, N = 2 independent measurements with six technical replicates each (Figs S6-S8)
Description: (§1) 10% fetal bovine serum and 1% penicillin-streptomycin (Thermo Fisher Scientific, Waltham, MA, USA). The cultures were kept at 37°C in a 5% CO2 atmosphere incubator (Thermo Fisher Scientific, Waltham, MA, USA) and split every two to three days to new culture flasks. Cells no older than 20 passages were used for experiments.
(§2) For splitting, the cell culture media was aspirated, the cells were washed with 0.01 M phosphate buffered saline (PBS, Gibco, Thermo Fisher Scientific, Waltham, MA, USA) and trypsin-EDTA (trypsin - ethylene diamine tetraacetic acid, Fisher scientific, UK) was added to the cell layer to detach them from the flask surface. After incubation for 2 min at 37°C, cells were resuspended with an equal volume of DMEM media and centrifuged at 310 g for 5 min at 4°C. After removal of the supernatant the cells were resuspended in DMEM cell media and split into new cell culture flasks at a 1/3 to 1/5 ratio.
(§3) Determination of the anticancer peptides half effective concentration (EC50) was performed by a 3-(4,5-dimethylthiazol-2-yl)-2,5-diphenyltetrazolium bromide (MTT) assay, as described elsewhere21. Briefly, […] were seeded in each well of a 96-well plate and left to adhere and […]
(§4) sulfoxide (DMSO, Fisher Scientific, UK) at an intermediate concentration of 1 mM. The peptides were then diluted in a 2-fold dilution series starting at 100 μM with DMEM culture media. Cells were incubated with the peptide solutions for 24 h. After this time, the cell media was removed and the cells were incubated for 1 h with a 0.5 mg mL−1 MTT solution to allow enough time for formazan crystal formation (Sigma Aldrich, Steinheim, Germany). The supernatant was removed and 100 μL of DMSO were added into each well to resuspend the formazan crystals.
(§5) After manually shaking the plates to completely dissolve the crystals, the absorbance was measured at 540 nm in a Tecan Infinity M1000 spectrophotometer. The cell viability was determined based on the quantification of the color intensity in each culture well, considering the absorbance obtained by the control media without peptides as a 100% survival. The resultant sigmoidal curves were analyzed with the drc22 R package using a log-logistic model

[2] = test system: A549 lung adenocarcinoma cell line; test: Cell viability assay (MTT); format: cell-based, human; conditions: Table S2; MTT, 24 h; mean ± sd; N = 2 independent measurements with six technical replicates each (Figs S6-S8); read-out: A549 EC50 /µM
Description: as §1, §2, §3, §4, §5

[3] = test system: noncancer HDMEC primary cells (human dermal microvascular endothelial cells); test: Cell viability assay (MTT); format: cell-based; conditions: Table S2; noncancer primary cells; MTT, 24 h; mean ± sd; N = 2 independent measurements with six technical replicates each (Figs S6-S8)
Description: as §1, §2, §3, §4, §5

| Structure (SMILES) | Eryhtr. HC50 /µM (human erythrocytes) | EC50 [1] | EC50 [2] | EC50 [3] |
| --- | --- | --- | --- | --- |
| CC[C@H](C)[C@H](NC(=O)[C@H](CCCCN)NC(=O)[C@H](CCCCN)NC(=O)[C@H](CC(C)C)NC(=O)[C@H](Cc1ccccc1)NC(=O)[C@H](CC(=O)O)NC(=O)[C@H](CCCCN)NC(=O)[C@H](Cc1ccccc1)NC(=O)[C@H](CCCCN)NC(=O)[C@H](CCCCN)NC(=O)[C@H](Cc1ccccc1)NC(=O)[C@@H](NC(=O)[C@@H](N)CCCCN)[C@@H](C)CC)C(=O)N[C@@H](Cc1ccccc1)C(=O)N[C@@H](CCC(N)=O)C(=O)N[C@@H](Cc1ccc(O)cc1)C(=O)N[C@@H](CC(C)C)C(=O)NCC(=O)N[C@@H](CCCCN)C(=O)N[C@H](C(N)=O)C(C)C [Off5] (H-KIFKKFKDFLKKIFQYLGKV-NH2) | 15 ± 2 µM | 12.4 ± 0.4 µM | 17.4 ± 0.1 µM | 10.1 ± 0.2 µM |
| CC[C@H](C)[C@H](NC(=O)[C@H](CCCCN)NC(=O)CNC(=O)[C@@H](NC(=O)[C@@H](NC(=O)[C@H](Cc1c[nH]cn1)NC(=O)[C@H](Cc1c[nH]c2ccccc12)NC(=O)[C@@H]1CCCN1C(=O)[C@H](CCCCN)NC(=O)[C@H](CCCCN)NC(=O)[C@H](CC(C)C)NC(=O)[C@H](Cc1ccccc1)NC(=O)[C@H](Cc1c[nH]cn1)NC(=O)[C@H](CCCNC(=N)N)NC(=O)[C@H](Cc1ccccc1)NC(=O)[C@H](CCCCN)NC(=O)[C@H](CCCCN)NC(=O)[C@H](Cc1ccc(O)cc1)NC(=O)[C@H](CC(C)C)NC(=O)[C@@H](N)[C@@H](C)O)C(C)C)C(C)C)C(N)=O [Off2.3] (H-TLYKKFRHFLKKPWHVVGKI-NH2) | > 200 µM | 65 ± 3 µM | > 100 µM | 167 ± 13 µM |
| CC[C@H](C)[C@H](NC(=O)[C@H](CC(C)C)NC(=O)[C@@H](N)CCC(N)=O)C(=O)N[C@@H](CCCCN)C(=O)N[C@@H](CCCCN)C(=O)N[C@@H](CC(C)C)C(=O)N[C@@H](CCCNC(=N)N)C(=O)N[C@H](C(=O)N[C@@H](Cc1c[nH]c2ccccc12)C(=O)N[C@@H](Cc1ccc(O)cc1)C(=O)N[C@@H](CCCNC(=N)N)C(=O)N[C@@H](CCCCN)C(=O)N[C@@H](C)C(=O)N[C@@H](Cc1c[nH]c2ccccc12)C(=O)N[C@@H](Cc1c[nH]cn1)C(=O)N[C@H](C(=O)N[C@@H](CC(C)C)C(=O)NCC(=O)N[C@@H](CCCCN)C(=O)N[C@@H](CC(C)C)C(N)=O)C(C)C)[C@@H](C)O [Off2.2.6] (H-QLIKKLRTWYRKAWHVLGKL-NH2) | > 200 µM | 6.5 ± 0.2 µM | 10.6 ± 0.8 µM | 9 ± 1 µM |
| CC[C@H](C)[C@H](NC(=O)[C@H](CCCCN)NC(=O)CNC(=O)[C@@H](NC(=O)[C@H](CC(C)C)NC(=O)[C@H](Cc1c[nH]cn1)NC(=O)[C@H](Cc1c[nH]c2ccccc12)NC(=O)[C@H](C)NC(=O)[C@H](CCCCN)NC(=O)[C@H](CCCCN)NC(=O)[C@@H](NC(=O)[C@H](Cc1c[nH]c2ccccc12)NC(=O)[C@@H](NC(=O)[C@H](CCCNC(=N)N)NC(=O)[C@@H](NC(=O)[C@H](CCCCN)NC(=O)[C@H](CCCCN)NC(=O)[C@@H](NC(=O)[C@@H](NC(=O)[C@@H](N)CCC(N)=O)[C@@H](C)CC)[C@@H](C)CC)C(C)C)[C@@H](C)O)[C@@H](C)CC)[C@@H](C)CC)C(N)=O [Off2.2.7] (H-QIIKKVRTWIKKAWHLIGKI-NH2) | > 100 µM | 8 ± 1 µM | 12 ± 2 µM | 17 ± 1 µM |
| CC[C@H](C)[C@H](NC(=O)[C@H](CC(C)C)NC(=O)[C@@H](N)CCC(N)=O)C(=O)N[C@@H](Cc1c[nH]cn1)C(=O)N[C@@H](CCCCN)C(=O)N[C@H](C(=O)N[C@@H](CCCNC(=N)N)C(=O)N[C@H](C(=O)N[C@@H](Cc1c[nH]c2ccccc12)C(=O)N[C@@H](Cc1ccc(O)cc1)C(=O)N[C@@H](CCCNC(=N)N)C(=O)N[C@@H](CCCCN)C(=O)N[C@@H](C)C(=O)N[C@@H](Cc1c[nH]c2ccccc12)C(=O)N[C@@H](Cc1c[nH]cn1)C(=O)N[C@H](C(=O)N[C@@H](CC(C)C)C(=O)NCC(=O)N[C@@H](CCCCN)C(=O)N[C@H](C(N)=O)C(C)C)C(C)C)[C@@H](C)O)[C@@H](C)CC [Off2.2.2] (H-QLIHKIRTWYRKAWHVLGKV-NH2) | > 200 µM | 13 ± 1 µM | 20 ± 2 µM | 28 ± 3 µM |
| CC[C@H](C)[C@H](NC(=O)[C@H](CC(C)C)NC(=O)[C@H](CCCCN)NC(=O)[C@H](Cc1ccccc1)NC(=O)[C@@H]1CCCN1C(=O)[C@H](CCCCN)NC(=O)[C@H](Cc1c[nH]cn1)NC(=O)[C@H](Cc1ccccc1)NC(=O)[C@H](Cc1c[nH]c2ccccc12)NC(=O)[C@@H](NC(=O)[C@H](CCCCN)NC(=O)[C@H](CC(C)C)NC(=O)[C@H](Cc1c[nH]cn1)NC(=O)[C@H](CCCNC(=N)N)NC(=O)[C@@H](NC(=O)[C@H](Cc1ccc(O)cc1)NC(=O)[C@@H](N)Cc1c[nH]cn1)[C@@H](C)CC)[C@@H](C)O)C(=O)NCC(=O)N[C@@H](CCCCN)C(=O)N[C@H](C(N)=O)C(C)C [Off2.4] (H-HYIRHLKTWFHKPFKLIGKV-NH2) | > 200 µM | > 100 µM | > 100 µM | 169 ± 28 µM |
| CC[C@H](C)[C@H](NC(=O)[C@H](CCCCN)NC(=O)[C@@H]1CCCN1C(=O)[C@H](Cc1c[nH]c2ccccc12)NC(=O)[C@@H](NC(=O)[C@H](Cc1c[nH]cn1)NC(=O)[C@H](Cc1c[nH]c2ccccc12)NC(=O)[C@H](C)NC(=O)[C@H](CCCCN)NC(=O)[C@H](CCCCN)NC(=O)[C@@H](NC(=O)[C@H](Cc1c[nH]c2ccccc12)NC(=O)[C@@H](NC(=O)[C@H](Cc1c[nH]cn1)NC(=O)[C@H](CC(C)C)NC(=O)[C@H](CCC(N)=O)NC(=O)[C@H](CCCNC(=N)N)NC(=O)[C@@H](NC(=O)[C@H](CCCNC(=N)N)NC(=O)[C@@H](N)CCC(N)=O)[C@@H](C)CC)[C@@H](C)O)[C@@H](C)CC)[C@@H](C)CC)C(N)=O [Off2.10] (H-QRIRQLHTWIKKAWHIWPKI-NH2) | > 200 µM | 28.6 ± 0.1 µM | 40 ± 2 µM | 39.7 ± 0.3 µM |
| CC[C@H](C)[C@H](NC(=O)[C@H](Cc1c[nH]cn1)NC(=O)[C@H](Cc1c[nH]c2ccccc12)NC(=O)[C@H](C)NC(=O)[C@H](CCCCN)NC(=O)[C@H](CCCNC(=N)N)NC(=O)[C@H](CC(C)C)NC(=O)[C@H](Cc1c[nH]c2ccccc12)NC(=O)[C@@H](NC(=O)[C@H](CCCNC(=N)N)NC(=O)[C@H](Cc1c[nH]c2ccccc12)NC(=O)[C@H](CCCCN)NC(=O)[C@H](CCCCN)NC(=O)[C@H](CC(C)C)NC(=O)[C@H](CC(C)C)NC(=O)[C@@H](N)Cc1c[nH]cn1)[C@@H](C)O)C(=O)N[C@H](C(=O)NCC(=O)N[C@@H](CCCCN)C(=O)N[C@H](C(N)=O)C(C)C)C(C)C [Off2.2.3] (H-HLLKKWRTWLRKAWHIVGKV-NH2) | 59 ± 6 µM | 7 ± 1 µM | 9 ± 1 µM | 6.1 ± 0.5 µM |
